Source: patent US20130137776A1, “METHOD FOR INHIBITING HISTONE GENE TRANSCRIPTION AND EXPRESSION” (CHINA MEDICAL UNIVERSITY, priority 2011, published 2013)

Legend:
[1] = test system: HSC-3 cells; experiment: Cell cycle analysis by flow cytometry (PI staining); assay type: cell-based, human; details: 24 hours, 0 μM control 31.38%
Procedure: HSC-3 cells (2×10^5/4 ml) were respectively treated by 0 μM, 3.12 μM, and 6.25 μM hinokitiol for 24 hours, washed by an ice-cold PBS buffer solution twice, and fixed in 70% ice-cold ethanol at 4° C. for 4 hours. Then, the cells were stained by propidium iodide (PI), and a cell cycle analysis was performed by using a BD FACSAria flow cytometer (commercially purchased from Becton Dickinson, Germany). The obtained data was analyzed by MULTICycle Software (commercially purchased from Coulter company, U.S.A.).

[2] = test system: histone H3 expression in SAS cancer cell line; experiment: Western blotting analysis of histone H3, SAS cancer cell line; assay type: cell-based, human; details: 6.25 μM and 12.5 μM, 24 hours, actin internal control
Procedure: (§1) Normal human oral keratinocyte cell lines (OK, obtained from China Medical University Hospital, Taiwan), HSC-3 cancer cell lines, and SAS cancer cell lines (OSCC cancer cell line, obtained from the tongue tissue of a patient in National Yang Ming University, Taiwan) were cultured (the protocols related to cell culture can be seen in Lu, S. Y. et al., Ripe areca nut extract induces G1 phase arrests and senescence-associated phenotypes in normal human oral keratinocyte. Carcinogenesis, 2006. 27 (6), p. 1273-84; and Shieh, T. M. et al., Association of expression aberrances and genetic polymorphisms of lysyl oxidase with areca-associated oral tumorigenesis. Clin Cancer Res, 2007. 13 (15 Pt 1), p. 4378-85, which are entirely incorporated hereinto by reference). The cells were respectively treated by 0 μM, 6.25 μM, and 12.5 μM hinokitiol for 24 hours, and scratched from the cell culture dishes and collected by centrifugation. Then, western blotting analysis was performed (see Lu, S. Y. et al., Ripe areca nut extract induces G1 phase arrests and senescence-associated phenotypes in normal human oral keratinocyte. Carcinogenesis, 2006. 27 (6), p. 1273-84, which is entirely incorporated hereinto by reference). […]

[3] = test system: histone H3 expression in HSC-3 cancer cell line; experiment: Western blotting analysis of histone H3, HSC-3 cancer cell line; assay type: cell-based, human; details: 6.25 μM and 12.5 μM, 24 hours, actin internal control
Procedure: as §1

[4] = test system: histone H2B and H3 gene expression in HSC-3 cell line; experiment: Reverse transcription-PCR of histone H2B and H3 gene expression; assay type: cell-based, human; details: 6.25 μM, 24 hours, GAPDH internal control
Procedure: HSC-3 cell lines were cultured and respectively treated by 0 μM and 6.25 μM hinokitiol for 24 hours. Then, the cells were scratched from the cell culture dishes and collected by centrifugation. Afterwards, reverse transcription-PCR (RT-PCR) was performed. The protocols and conditions related to RT-PCR can be seen in Shieh, T. M. et al., Association of expression aberrances and genetic polymorphisms of lysyl oxidase with areca-associated oral tumorigenesis. Clin Cancer Res, 2007. 13 (15 Pt1), p. 4378-85; and Shieh, T. M. et al., Association between the polymorphisms in exon 12 of hypoxia-inducible factor-1alpha and the clinicopathological features of oral squamous cell carcinoma. Oral Oncol, 2010. 46 (9), p. e47-53, which are entirely incorporated hereinto by reference.
The gene expression level of Glyceraldehyde-3-phosphate dehydrogenase (GAPDH) was used as an internal control. The variation of the gene expression level of histone H2B and H3 in HSC3 cell lines treated by hinokitiol was compared with the control group, and the results are shown in FIG. 2. At least two independent RT-PCR experiments were performed to validate the reproducibility of the analysis.

[5] = test system: histone gene transcription of the HSC-3 cancer cell line; experiment: Microarray analysis of gene expression in hinokitiol-treated HSC-3 cells; assay type: cell-based; details: 6.25 μM or 12.5 μM hinokitiol, 24 hours, Affymetrix Human Gene 1.0 ST microarray
Procedure: (1) Cell Culture and RNA Collection
Human oral squamous-cell carcinoma (OSCC) cell lines, such as HSC-3 (JCRB0623, Japan), was cultured. The relative culture methods can be seen in Shieh, T. M. et al., Association of expression aberrances and genetic polymorphisms of lysyl oxidase with areca-associated oral tumorigenesis. Clin Cancer Res, 2007. 13(15 Pt 1): p. 4378-85; Chen, J. C. et al., Gypenosides induced G0/G1 arrest via CHk2 and apoptosis through endoplasmic reticulum stress and mitochondria-dependent pathways in human tongue cancer SCC-4 cells. Oral Oncol, 2009. 45(3): p. 273-83; and Lin, C. C. et al., Berberine induces apoptosis in human HSC-3 oral cancer cells via simultaneous activation of the death receptor-mediated and mitochondrial pathway. Anticancer Res, 2007. 27(5A): p. 3371-8, which are entirely incorporated hereinto by reference.
Then, the HSC-3 cell lines were divided into four groups: two groups of the cells were not treated by hinokitiol (0 μM); one group of the cells was treated by 6.25 μM hinokitiol (commercially purchased from Sigma-Aldrich company); and one group of the cells was treated by 12.5 μM hinokitiol. […] The content and purity of the obtained RNA were respectively determined at wavelengths of 260 nm and 280 nm by using a micro-volume spectrophotometer (Nanodrop ND-1000, commercially purchased from Labtech. International company). […]

[6] = test system: histone H3 expression in normal human oral keratinocyte cell line (OK); experiment: Western blotting analysis of histone H3, normal human oral keratinocyte cell line; assay type: cell-based; details: 6.25 μM and 12.5 μM, 24 hours, actin internal control
Procedure: as §1

[7] = compound of formula (I) and its salts; cited from Imai et al. 2006 and Ema et al. 2004 (rats); cited from earlier work

CC(C)c1cccc(O)c(=O)c1 [hinokitiol]
proportion of the cells in the synthesis phase (S phase) ([1]; 3.125 μM hinokitiol): 41.19% | proportion of the cells in the synthesis phase (S phase) ([1]; 6.25 μM hinokitiol): 43.89% | expression level of histone H3 [2]: significantly decreased | expression level of histone H3 [3]: significantly decreased | gene expression level of histone H2B [4]: decreased | gene expression level of histone H3 [4]: decreased | expression of histone genes (H1d, H3g, H3j, H3a, H3h, H2bm, H2bg, H3l, H2bf, H2a) vs untreated control [5]: decreased by above two-fold | expression level of histone H3 [6]: not affected | biological toxicity [7]: low biological toxicity
